Here are results for 35 compounds from US7803825B2, “Aminoalkylazole derivatives as histamine-3 antagonists” (Wyeth LLC, priority 2007, dated 2010).

One may read the Ki as a measure of affinity in units of concentration, obtained from inhibition or displacement. A high value points to a looser hold on the target.

Where a name gives a salt, the structure may show the parent alone.

The target in this test is T1, histamine-3 (H3) receptor (Homo sapiens, UniProt Q9Y5N1).
T1 construct: expressed in transfected cells; host or cells: HEK293T
In words: Methyl Histamine Binding in Human Histamine-3 Receptor Cell Line. Particulars: membranes of stably transfected HEK293T cells, radioligand 1 nM, Ki from IC50 by Cheng-Prusoff. As for the experimental part: Evaluation of Methyl Histamine Binding in Human Histamine-3 Receptor Cell Line
The affinity of test compounds for the histamine-3 (H3) receptor is evaluated in the following manner. Stably transfected HEK293T cells are grown in DMEM containing 10% heat inactivated FBS and G-418 (500 ug/ml). Cells are scraped from the plate, transferred to centrifuge tubes, washed one time in PBS by centrifugation in a Sorvall RT7 Plus centrifuge (2000 rpm 10 minutes, 4° C.). The resulting pellets are stored at 80° C. until ready for use. Cells are re-suspended in buffer (50 mM Tris pH=7.5) and placed in a Dounce homogenizer, douncing ten times to homogenize cells. The homogenate is spun down by centrifugation (Sorvall RT7 Plus, 1800 rpm 10 minutes, 4° C.). The supernatant is placed in a Corex tube and spun down by centrifugation (Sorvall RC 5c Plus, 17,000 rpm 20 minutes, 4° C.). The pellet is resuspended in buffer (50 mM Tris, pH 7.5). Protein concentration (ug/ul) is determined using the Micro-BCA Protein Determination. The binding assay is set up in a 96 well microtiter plate in a total volume of 250 uL. Non-specific binding is determined in the presence of 10 uM clobenpropit. The final radioligand concentration is 1 nM. The test compound is serially diluted using the Beckman Biomek2000 to a final approximate range of 100 uM to 100 pM. Membranes are suspended in buffer, homogenized in 2 bursts of ten seconds using a Vitris mechanical homogenizer set at power setting 5. Ten μg of membranes are added to each well. Following a one hour incubation at 30° C., the reaction is terminated by the addition of ice cold buffer and rapid filtration with a Packard Filtermate Harvester through a GF/B filter pre-soaked with 1% PEI for one hour. The plate is dried for one hour at 37° C. and 60 μL Microscint Scintillant is added to each well. The CPM per well is measured on a Packard Top Count NXT. Ki values are determined in nM. The Ki is calculated from the IC50 (i.e. the concentration of competing ligand which displaces 50% of the specific binding of the radioligand). CPM values are expressed as % specific binding and plotted vs compound concentration. A curve is fitted using a four-parameter logistic fit and the IC50 value is determined. The Ki is calculated from this using the Cheng-Prusoff equation: […]=IC50/1+(L/Kd) where L=concentration of free radioligand used in the assay, and Kd is the dissociation constant of the radioligand for the receptor. L is determined for each experiment by counting an aliquot of the diluted radioligand (corresponding to that added to each well) and the Kd has previously been determined under identical conditions for this cell line/radioligand.

T1 sequence (Q9Y5N1 whole entry): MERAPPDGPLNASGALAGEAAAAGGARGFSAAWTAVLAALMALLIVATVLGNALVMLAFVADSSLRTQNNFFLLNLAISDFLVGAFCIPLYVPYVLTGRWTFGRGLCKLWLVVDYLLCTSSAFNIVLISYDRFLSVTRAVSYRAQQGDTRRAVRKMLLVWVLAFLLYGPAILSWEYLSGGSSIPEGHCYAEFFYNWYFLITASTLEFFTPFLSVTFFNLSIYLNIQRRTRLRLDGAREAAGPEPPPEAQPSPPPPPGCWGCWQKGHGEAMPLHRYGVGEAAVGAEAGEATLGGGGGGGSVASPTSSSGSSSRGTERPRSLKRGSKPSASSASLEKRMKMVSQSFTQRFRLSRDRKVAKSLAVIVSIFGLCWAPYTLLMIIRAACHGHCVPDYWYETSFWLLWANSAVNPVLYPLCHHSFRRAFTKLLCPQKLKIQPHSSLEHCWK

`CC1CCCN(Cc2cnc(-c3ccc(Cn4cnc5ccccc54)cc3)o2)C1` (centres unmarked) [Example 109, 1-(4-{5-[(3-methylpiperidin-1-yl)methyl]-1,3-oxazol-2-yl}benzyl)-1H-benzimidazole]: the Ki is more than 100 nM.

With `c1ccc2c(c1)nc(-c1ccc(-c3nc(CN4CCCC4)co3)cc1)n2CCC1CCCCC1` [Example 60, 1-(2-cyclohexylethyl)-2-{4-[4-(pyrrolidin-1-ylmethyl)-1,3-oxazol-2-yl]phenyl}-1H-benzimidazole], the Ki was 50.1 to 100 nM.

Regarding `CC1CCCN1Cc1cnc(-c2ccc(Cn3cnc4ccccc43)cc2)o1` (centres unmarked) [Example 105, 1-(4-{5-[(2-methylpyrrolidin-1-yl)methyl]-1,3-oxazol-2-yl}benzyl)-1H-benzimidazole], the Ki is not above 10 nM.

The compound `Cn1c(CN2CCCC2)cnc1-c1ccc(Cn2cnc3ccccc32)cc1` [Example 139, 1-[4-(1-Methyl-5-pyrrolidin-1-ylmethyl-1H-imidazol-2-yl)-benzyl]-1H-benzoimidazole fumarate salt] came in with a Ki of 50.1 to 100 nM.

As to `Brc1oc(-c2ccc(Cn3cnc4ccccc43)cc2)nc1CN1CCCC1` [Example 29, 1-{4-[5-bromo-4-(pyrrolidin-1-ylmethyl)-1,3-oxazol-2-yl]benzyl}-1H-benzimidazole], the Ki was in the range of 25.1 to 50 nM.

The compound `C[C@H]1CCCN1Cc1coc(-c2ccc(Cn3ncc4cc(F)ccc43)cc2)n1` [Example 98, 5-fluoro-1-[4-(4-{[(2S)-2-methylpyrrolidin-1-yl]methyl}-1,3-oxazol-2-yl)benzyl]-1H-indazole] came in with a Ki not above 10 nM.

`NCc1ccc2c(cnn2Cc2ccc(-c3nc(CN4CCCC4)co3)cc2)c1` [Example 102, 1-(1-{4-[4-(pyrrolidin-1-ylmethyl)-1,3-oxazol-2-yl]benzyl}-1H-indazol-5-yl)methanamine] yielded a Ki not above 10 nM.

On to `c1ccc2c(c1)ncn2Cc1ccc(-c2nc(CN3CCCC3)cs2)cc1` [Example 71, 1-{4-[4-(Pyrrolidin-1-ylmethyl)-1,3-thiazol-2-yl]benzyl}-1H-benzimidazole Hydrochloride], for which the inhibition constant Ki lay in the range of 10.1 to 25 nM.

In turn, `c1ccc2c(c1)ncn2Cc1ccc(-c2ncc(CN3CCCC3)o2)cc1` [Example 104, 1-{4-[5-(pyrrolidin-1-ylmethyl)-1,3-oxazol-2-yl]benzyl}-1H-benzimidazole] came in with an inhibitory constant (Ki) of more than 100 nM.

Compound `FC(F)(F)c1nc2ccccc2n1Cc1ccc(-c2nc(CN3CCCCCC3)co2)cc1` [Example 120, 1-{4-[4-(azepan-1-ylmethyl)-1,3-oxazol-2-yl]benzyl}-2-(trifluoromethyl)-1H-benzimidazole] yielded a Ki of 10.1 to 25 nM.

`OC[C@@H]1CCCN1Cc1coc(-c2ccc(-n3cnc4ccccc43)cc2)n1` [Example 48, [(2S)-1-({2-[4-(1H-benzimidazol-1-yl)phenyl]-1,3-oxazol-4-yl}methyl)pyrrolidin-2-yl]methanol] gave a Ki not above 10 nM.

In turn, `C[C@@H]1CCCN1Cc1coc(-c2ccc(Cn3ncc4ccccc43)cc2)n1` [Example 94, 1-[4-(4-{[(2R)-2-methylpyrrolidin-1-yl]methyl}-1,3-oxazol-2-yl)benzyl]-1H-indazole] came in with an inhibition constant Ki of 50.1 to 100 nM.

As to `C[C@@H]1CCCN1Cc1coc(-c2ccc(Cn3c(C(F)(F)F)nc4ccccc43)cc2)n1` [Example 116, 1-[4-(4-{[(2R)-2-methylpyrrolidin-1-yl]methyl}-1,3-oxazol-2-yl)benzyl]-2-(trifluoromethyl)-1H-benzimidazole], the Ki was 10.1 to 25 nM.

Consider `c1ccc2c(c1)ncn2Cc1ccc(-c2nc(CN3CCCCCC3)cs2)cc1` [Example 74, 1-{4-[4-(azepan-1-ylmethyl)-1,3-thiazol-2-yl]benzyl}-1H-benzimidazole], for which the Ki was not above 10 nM.

`C[C@H]1CCCN1Cc1coc(-c2ccc(Cn3ncc4ccccc43)cc2)n1` [Example 97, 1-[4-(4-{[(2S)-2-methylpyrrolidin-1-yl]methyl}-1,3-oxazol-2-yl)benzyl]-1H-indazole] yielded a Ki not above 10 nM.

For `Cn1c(CN2CCCC2)cnc1-c1ccc(F)cc1` [Example 145, 2-(4-Fluoro-phenyl)-1-methyl-5-pyrrolidin-1-ylmethyl-1H-imidazole fumarate salt], the Ki was more than 100 nM.

`c1ccc(-c2nc3ccccc3n2Cc2ccc(-c3nc(CN4CCCC4)co3)cc2)cc1` [Example 115, 2-phenyl-1-{4-[4-(pyrrolidin-1-ylmethyl)-1,3-oxazol-2-yl]benzyl}-1H-benzimidazole] had a Ki not above 10 nM.

`c1ccc2c(c1)ncn2Cc1ccc(-c2nc(CN3CCCCCC3)co2)cc1` [Example 14, 1-{4-[4-(azepan-1-ylmethyl)-1,3-oxazol-2-yl]benzyl}-1H-benzimidazole] gave a Ki not above 10 nM.

With `Cn1c(CN2CCCC2)cnc1-c1ccc(C#N)cc1` [Example 144, 4-(1-Methyl-5-pyrrolidin-1-ylmethyl-1H-imidazol-2-yl)-benzonitrile fumarate salt], the Ki was more than 100 nM.

`CC1CCCN1Cc1coc(-c2ccc(-n3cnc4ccccc43)cc2)n1` (centres unmarked) [Example 43, 1-(4-{4-[(2-methylpyrrolidin-1-yl)methyl]-1,3-oxazol-2-yl}phenyl)-1H-benzimidazole] returned a Ki of 10.1 to 25 nM.

The compound `C[C@@H]1CCCN1Cc1cnc(-c2ccc(Cn3cnc4ccccc43)cc2)o1` [Example 108, 1-[4-(5-{[(2R)-2-methylpyrrolidin-1-yl]methyl}-1,3-oxazol-2-yl)benzyl]-1H-benzimidazole] showed a Ki of 25.1 to 50 nM.

The compound `CN(C)Cc1coc(-c2ccc(Cn3cnc4ccccc43)cc2)n1` [Example 8] registered a Ki of 10.1 to 25 nM.

For `CN(C)Cc1coc(-c2ccc(-c3nc4ccccc4n3C)cc2)n1` [Example 54, N,N-dimethyl-1-{2-[4-(1-methyl-1H-benzimidazol-2-yl)phenyl]-1,3-oxazol-4-yl}methanamine], the Ki is 10.1 to 25 nM.

On to `Cn1c(CN2CCCC2)cnc1-c1ccccc1` [Example 143, 1-Methyl-2-phenyl-5-pyrrolidin-1-ylmethyl-1H-imidazole fumarate salt], for which the Ki is more than 100 nM.

`Fc1ccc2cnn(Cc3ccc(-c4nc(CN5CCCC5)co4)cc3)c2c1` [Example 101, 6-fluoro-1-{4-[4-(pyrrolidin-1-ylmethyl)-1,3-oxazol-2-yl]benzyl}-1H-indazole] displayed a Ki of 25.1 to 50 nM.

`c1ccc2c(c1)ncn2Cc1ccc(-c2ncc(CN3CCCCC3)o2)cc1` [Example 107, 1-{4-[5-(piperidin-1-ylmethyl)-1,3-oxazol-2-yl]benzyl}-1H-benzimidazole] came in with a Ki of more than 100 nM.

For `CC1CCN(Cc2coc(-c3ccc(-n4cnc5ccccc54)cc3)n2)CC1` [Example 47, 1-(4-{4-[(4-methylpiperidin-1-yl)methyl]-1,3-oxazol-2-yl}phenyl)-1H-benzimidazole], the Ki is not above 10 nM.

On to `Cn1c(-c2ccc(-c3nc(CN4CCCCC4)co3)cc2)nc2ccccc21` [Example 52, 1-methyl-2-{4-[4-(piperidin-1-ylmethyl)-1,3-oxazol-2-yl]phenyl}-1H-benzimidazole], for which the inhibition constant (Ki) was not above 10 nM.

As to `c1ccc2c(c1)ncn2Cc1ccc(-c2nc(CN3CCCCC3)cs2)cc1` [Example 73, 1-{4-[4-(piperidin-1-ylmethyl)-1,3-thiazol-2-yl]benzyl}-1H-benzimidazole], the Ki is not above 10 nM.

In the case of `CC1CCN(Cc2coc(-c3ccc(Cn4cnc5ccccc54)cc3)n2)CC1` [Example 17], the Ki was not above 10 nM.

The compound `FC(F)(F)c1nc2ccccc2n1Cc1ccc(-c2nc(CN3CCCC3)co2)cc1` [Example 114] came in with a Ki not above 10 nM.

The compound `CCN(CC)Cc1coc(-c2ccc(-n3cnc4ccccc43)cc2)n1` [Example 42, N-({2-[4-(1H-benzimidazol-1-yl)phenyl]-1,3-oxazol-4-yl}methyl)-N-ethylethanamine] came in with a Ki of 25.1 to 50 nM.

In turn, `c1ccc2c(c1)ncn2-c1ccc(-c2nc(CN3CCCCC3)co2)cc1` [Example 37] displayed a Ki not above 10 nM.

For `OC[C@@H]1CCCN1Cc1coc(-c2ccc(Cn3cnc4ccccc43)cc2)n1` [Example 18, [(2S)-1-({2-[4-(1H-benzimidazol-1-ylmethyl)phenyl]-1,3-oxazol-4-yl}methyl)pyrrolidin-2-yl]methanol], the Ki was 10.1 to 25 nM.

In the case of `CCN(C)Cc1coc(-c2ccc(-c3nc4ccccc4n3C)cc2)n1` [Example 53, N-methyl-N-({2-[4-(1-methyl-1H-benzimidazol-2-yl)phenyl]-1,3-oxazol-4-yl}methyl)ethanamine], the Ki is not above 10 nM.
